{
  "source": "patent US20190054096A1",
  "about": "“METHODS FOR A[…] VIRULENCE” (priority 2015, published 2019)",
  "key": {"[1]": {"system": "P. falciparum parasite line, 3D7", "assay": "microbe, parasite or virus in culture", "format": "cell-based, Plasmodium falciparum", "conditions": "P. falciparum 3D7 blood-stages, 0.1% initial parasitemia", "description": "FIG. 9 exemplifies a dose-dependent effect of CR-mimetic compounds on human P. falciparum blood-stages. Synchronized cultures were set at 0.1% initial parasitemia, treated with the various compounds and analysed by flow cytometry after SYBR Green labelling of parasite DNA at 72 hours or 96 hours post-treatment. Data (mean±sem) was […] to the untreated control on each experiment (3-5 independent experiments/compound). IC50 values were determined by GraphPad. Prism using non-linear regression variable slope (normalized) analysis. […] Data for rsv and SRT1720 was collected at 72 hours post-treatment, and 96 hours for all the other compounds.\nExample 7. Dose-dependent effect of CR-mimetic compounds on human P. falciparum blood-stages. Synchronized cultures of the P. falciparum parasite line, 3D7, were set at 0.1% initial parasitemia, treated with the various compounds and analysed by flow cytometry after SYBR Green labelling of parasite DNA at 72 hours or 96 hours post-treatment. […] Data for rsv and SRT1720 were collected at 72 hours post-treatment, and 96 hours for all the other compounds.\nP. falciparum 3D7 was continuously cultured in human erythrocytes at 4% hematocrit in RPMI 1640 supplemented with 0.5% Albumax II (Invitrogen), […] Hypoxanthine (Sigma) and 20 μg/ml Gentamicin (Invitrogen). Cultures were maintained at 37° C. in an atmosphere of 5% O2, 5% CO2, 90% N2, and synchronized by consecutive treatments of 5% Sorbitol (Sigma), for dose-response analysis, serial dilutions of the compounds were added to synchronized ring-stages of P. falciparum in 96-well plates. Initial parasitemia was set to 0.1% and hematocrit 2%. Parasite replication and reinvasion were assessed at the indicated time by flow cytometry based on fluorescent labelling of P. falciparum DNA. The SYBR Green I (Invitrogen) stained samples were analysed on a CyFlow® SL Blue or Accuri® BD flow cytometer and the data evaluated using FlowJo software (TreeStar) to determine the percentage of infected erythrocytes. IC50 values were calculated using GraphPad Prism."}, "P. berghei sporozoites [2]": {"system": "P. berghei sporozoites", "assay": "Relative parasitemia after P. berghei sporozoite (liver-stage) infection of mice", "format": "in vivo, C57BL/6 mice", "conditions": "72 h.p.i., vs control", "procedure": "Relative parasitemia in C57BL/6 mice that were infected with freshly dissected P. berghei sporozoites, and treated with salicylate or metformin, or maintained under control conditions. Salicylate (300 mg/Kg) was administered by i.p. injection once daily, starting one hour before infection, Metformin (500 mg/Kg) was provided in the drinking water for one week prior and during infection, (≥10 mice/group; each dot represents, one mouse). ***p<0.001; ****p<0.0001.\nParasitemia was determined by flow cytometry analysis (BD FACSCAlibur200 or BD LSRFortessa®) of one drop of tail blood in PBS from C57BL/6 mice that were infected with GFP-expressing P. berghei parasites, and maintained on either AL or CR diets. Analysis on FlowJo® followed. The number of acquired total events ranged from 100-200 thousand. […] The GFP-expressing parasites were detected in the FITC channel. False GFP positive ceils (erythrocyte's auto-fluorescence) were eliminated by plotting FITC against PE.\nRelative parasitemia in C57BL/6 mice at 72 hours post infection (h.p.i) with freshly dissected P. berghei sporozoites, was determined by flow cytometry analysis (as described in Example 1) for mice treated with either salicylate or metformin, or maintained under control, untreated conditions. […]"}, "P. berghei sporozoites [3]": {"system": "P. berghei sporozoites", "assay": "Survival of P. berghei sporozoite-infected mice", "format": "in vivo, C57BL/6 mice", "conditions": "15-day period", "text": "FIG. 6 exemplifies that treatment with AMPK agonists protects P. berghei infected mice from severe malaria, leading to improved survival, C57BL/6 mice were infected and treated as in FIG. 5 (≥10 mice/group; p<0.05).\nExample 4. Improved survival of parasite-infected mice treated with AMPK agonists. To determine the effect of the AMPK activators, salicylate and metformin, on animal survival over a 15-day period following parasite infection, C57BL/6 mice were infected by i.d. injection of 5×10^3 P. berghei sporozoites. Salicylate (300 mg/Kg, Sigma No. 71945) was administered by i.p. injection once daily, starting one hour before infection. Metformin (500 mg/Kg. Sigma No D150959) was provided in the drinking water for one week prior to, and during, infection."}, "[4]": {"system": "P. berghei wild-type (wt) and complemented Δkin (Δkin+kin) parasites", "assay": "In vitro schizont maturation, merozoites per segmented schizont (wild-type and complemented Δkin)", "format": "cell-based, Plasmodium berghei", "conditions": "625 μM, 24 h in vitro, medium with 25% fetal bovine serum", "description": "(§1) FIG. 7A exemplifies microscopy analysis and quantification of the number of merozoites per segmented schizont in P. berghei wild-type (wt), Δkin and complemented Δkin (Δkin+kin) parasites. Blood-stage parasites were allowed to mature for 24 hours into schizonts in vitro with medium supplemented with AL and CR sera. KIN is the AMPK homologue in Plasmodium parasites. ****p<0.0001.\n(§2) Example 5. The AMPK homologue, KIN, regulates the CR effect in Plasmodium parasites. P. berghei parasite wild-type respond to CR by decreasing the number of daughter merozoites on each cycle. […] The CR effect phenotype can be rescued by reintroducing the kin gene into Δkin parasite line.\n(§3) P. berghei blood-stage parasites can be maintained in vitro for only one developmental cycle (20-24 h), in which ring forms develop into mature schizonts, without bursting. Infected blood was obtained from in vivo infections containing mainly ring-stage forms at 1-3% parasitemia. Parasites were cultured in RPMI1640 medium containing 25 mM HEPES, 0.05 mg/ml Gentamicin or Penicillin/Streptomycin (all Gibco/Invitrogen), in 96-well plates. […] Parasite development and the number of merozoites per schizont were then assessed using light microscopy and image (http://rsbweb.nih.gov/ij/). Only mature schizont (segmenters) with clearly separated merozoites were scored."}, "[5]": {"system": "P. berghei Δkin parasites", "assay": "In vitro schizont maturation, merozoites per segmented schizont (Δkin)", "format": "cell-based, Plasmodium berghei", "conditions": "24 h in vitro, medium with 25% fetal bovine serum", "description": "as §1, §2, §3"}, "AMPKα (pAMPKα T172)": {"system": "AMPKα (pAMPKα T172)", "assay": "Western blot of AMPK phosphorylation in liver homogenates", "format": "in vivo, C57BL/6 mice", "conditions": "non-infected mice, 1 hr after injection, vs vehicle", "text": "Western blot analysis of liver homogenates from non-infected mice in AL and DR diets (top panel), and non-infected mice 1 hr after injection of salicylate or vehicle (bottom panel). Lane numbers 1-3 correlate to liver homogenates from individual mice. Representative blot probing with anti-phospho AMPKα (pAMPKα^T172), and -actin antibodies.\nExample 2. […] Western blot analysis of AMPK phosphorylation in liver homogenates from non-infected C57BL/6 mice in AL end DR diets, and non-infected mice one hour after injection of salicylate or vehicle. Livers were homogenized in ice-cold lysis buffer (50 mM HEPES, 150 mM NaCl, 10 mM NaF, 1 mM Sodium pyrophosphate, 0.5 mM EDTA, 1 mM DTT, 1% triton, 1 mM Na3VO4, 250 mM Sucrose, protease inhibitor cocktail and phosphatase inhibitors). Total protein content in each homogenate was measured by Bradford Assay (Bio-Rad), according to manufacturer's instructions. 50 μg of total liver lysates were resolved on either 8% SDS-PAGE or Any kD™ Mini-PROTEAN® precast gels (Bio-Rad) and transferred to a nitrocellulose membrane using standard wet transfer with 1× Tris-Glycine buffer containing 20% methanol for 2 hr at 100 V constant or were transferred using iBlot® gel Transfer Stacks (ThermoFisher). […]\npAMPK was detected using rabbit anti-phospho-AMPKα T172 (mAb 40H9.1:1000, Cell Signaling Technology) (incubation for overnight at 4° C). […]"}, "[6]": {"conditions": "300 mg/Kg i.p. once daily, starting one hour before infection"}},
  "note": "“Also recorded” adds a separate entry of the source.",
  "data": [
    {"smiles": "N#Cc1c(O)c2c(-c3ccc(-c4ccccc4O)cc3)csc2[nH]c1=O", "note": "[A769662]", "values": [
      {"measurement": "IC50", "setting": "[1]; 96 hours post-treatment", "result": 71, "unit": "µM"}
    ]},
    {"smiles": "O=C(Nc1ccccc1-c1cn2c(CN3CCNCC3)csc2n1)c1cnc2ccccc2n1", "note": "[SRT1720]", "values": [
      {"measurement": "IC50", "setting": "[1]; 72 hours post-treatment", "result": 0.786, "unit": "µM"}
    ]},
    {"smiles": "CN(C)C(=N)N=C(N)N", "note": "[metformin]", "values": [
      {"measurement": "IC50", "setting": "[1]; Plasmodium falciparum, 96 hours post-treatment", "result": 868, "unit": "µM"},
      {"measurement": "Relative parasitemia (liver-stage infection)", "setting": "P. berghei sporozoites [2]; 500 mg/Kg in drinking water for one week prior and during infection", "result": "reduction of P. berghei liver-stage infection"},
      {"measurement": "Survival rate", "setting": "P. berghei sporozoites [3]; 500 mg/Kg in drinking water for one week prior to and during infection", "result": "significant increases in the survival rates"}
    ]},
    {"smiles": "Oc1ccc(C=Cc2cc(O)cc(O)c2)cc1", "note": "[resveratrol]", "values": [
      {"measurement": "IC50", "setting": "[1]; Plasmodium falciparum, 72 hours post-treatment", "result": 32, "unit": "µM"}
    ]},
    {"smiles": "O=C(O)c1ccccc1O", "note": "[salicylate]", "values": [
      {"measurement": "IC50", "setting": "[1]; 96 hours post-treatment", "result": 1300, "unit": "µM"},
      {"measurement": "Relative parasitemia (liver-stage infection)", "setting": "P. berghei sporozoites [2]; [6]", "result": "reduction of P. berghei liver-stage infection"},
      {"measurement": "Survival rate", "setting": "P. berghei sporozoites [3]; [6]", "result": "significant increases in the survival rates"},
      {"measurement": "Parasite replication (merozoites per schizont)", "setting": "[4]", "result": "reduced parasite replication; also recorded: reduce replication"},
      {"measurement": "Parasite replication (merozoites per schizont)", "setting": "[5]", "result": "fail to respond"},
      {"measurement": "AMPK phosphorylation (pAMPKα T172) in liver", "setting": "AMPKα (pAMPKα T172)", "result": "activation of AMPK"}
    ]}
  ]
}
